Source: patent US5434159A, “6,11-cyclyl-1,2,3,4,5,6,11,11a-octahydrobenzo[b]quinolines and compositions and method of use thereof” (Sterling Winthrop Inc., priority 1994, dated 1995)
Counter-ions that a name gives are not always drawn.

Legend:
[1] = target: PCP recognition sites (PCP receptor); assay: [^3 H]TCP Radioreceptor Assay (internal screen); type: binding; details: whole rat brain membranes, [^3 H]TCP approx. 1 nM, room temperature 25 min; mean of at least two separate determinations
Method: [^3 H]TCP Radioreceptor Assay (internal screen)
[^3 H]TCP binding to PCP recognition sites was performed as described by Vignon et al. Brain Research 1983, 280, 194-197. Male Spmgue-Dawley rats were sacrificed by decapitation, and whole brains were homogenized in 10 volumes (wt/vol) of cold Tris-HCl buffer (50 mM, pH 7.7) using a Brinkmann Polytron (setting 6, 30 sec). The homogenate was centrifuged at 40,000×g for 10 min at 4° C. The supernatant was decanted, and the homogenization and centrifugation steps were repeated twice as described above. Following this, the pellet was resuspended in Tris-HCl (5 mM, pH 7.7) at a tissue concentration of 0.5-0.75 g/ml, and one ml aliquots were frozen at -70° C. unto use. The binding characteristics for PCP recognition sites were not altered by the freezing of membrane suspensions.
On the day of the assay, membrane aliquots were thawed, resuspended in fresh 5 mM Tris-HCl buffer at a tissue concentration of 1 mg/ml, and stored on ice until use. Each assay tube contained 100 μl of [^3 H]TCP at a final concentration of approximately 1 nM, 100 μl of various concentrations of the compounds of interest, 500 μl of the tissue suspension and 300 μ of buffer to a final assay volume of 1 ml and a final protein concentration of 0.5 mg/tube. Non-specific binding was defined by addition of a final concentration of 100 μM PCP to blank tubes. All tubes were incubated at room temperature for 25 min before termination of the reaction by rapid filtration over Whatman GF/B glass fiber filters that had been presoaked in a solution of 0.5% polyethyleneimine for at least 1 hr prior to use. Filters were washed with three 4 ml volumes of cold Tris buffer. Following addition of scintillation cocktail, the amount of bound radioactivity was determined by liquid scintillation spectrometry using a Beckman LS 5000 TA liquid scintillation counter with an efficiency for tritium of approximately 55%. Inhibition constants (Ki values) were calculated using the EBDA/LIGAND program (McPherson, J. Pharmacol. Meth. 1985, 14, 213-228), purchased from Elsevier/Biosoft, Inc. Results are reported as Ki values which are expressed as the mean of at least two separate determinations.

[2] = tested on: NMDA-induced neurotoxicity in cultured cortical neurons; assay: Antagonism of NMDA-induced Neurotoxicity in Cultured Neurons (LDH activity); type: cell-based, Swiss-Webster mice; details: 500 μM NMDA for 30 minutes, LDH 24 hours after removal, day 13 cultured cortical neurons
Method: Antagonism of NMDA-induced Neurotoxicity in Cultured Neurons
Preparation of cultured cortical neurons
Pregnant, Swiss-Webster mice were obtained from Taconic 0 Farms (Germantown, N.Y.) and sacrificed 16 days post conception. Fetuses were removed and placed in a sterile dish containing Hank's balanced salt solution (HBSS), pH 7.4. Brain cortices were dissected, meninges were removed, the tissue was minced and placed into a solution of HBSS containing 0.25% (w/v) trypsin at 37° C. for 15 minutes. Tissue was then triturated with a sterile pasteur pipet, diluted with minimal essential media (Gibco 330-1430), pH 7.4, supplemented with 10% horse serum, 10% fetal calf serum, 2 mM l-glutamine, 21 mM d-glucose, 2.2 g/L sodium bicarbonate, 1000 U/ml penicillin, and 1,000 μg/ml streptomycin. Cells were plated onto Falcon primaria 96 well plates at a final density of 50,000 cells/well and incubated at 37° C. in the presence of 5% (v/v) carbon dioxide. After 5 days, plating media was replaced with maintenance media containing minimal essential media (Gibco 330-1430), pH 7.4, supplemented with 10% horse serum, […], 21 mM d-glucose, 2.2 g/l sodium bicarbonate, 1,000 U/ml penicillin, 1,000 μg/ml streptomycin, and 10 μM cytosine arabinoside. On days 7 and 10, media was replaced with maintenance media as above lacking the cytosine arabinoside. Experiments were conducted on day 13.
Neuroprotection Assessment
Day 13 cultured cortical neurons were washed twice with minimal essential media, pH 7.4 and then exposed for 30 minutes to 500 μM N-methyl-D-aspartic acid (NMDA) with or without varying concentrations of test agents. Dizocilpine (MK-801) at a final concentration of 10 μM MK-801 was routinely included as a positive control. MK-801 and test agents were prepared in minimal essential media supplemented with 21 mM d-glucose and 2.2 g/L sodium bicarbonate (MEM). After 30 minutes, media was replaced with MEM alone. Exposure of neurons to test agents was limited to the NMDA treatment period. […]

[3] = tested on: PCP recognition sites (PCP receptor); assay: [^3 H]TCP Radioreceptor Assay (external screen); type: binding; details: @10 μM; whole rat forebrain membranes, 25° C., 60 minutes
Method: Representative compounds of the invention were also tested in an external [^3 H]TCP radioreceptor assay using the following protocol:
[^3 H]TCP Radioreceptor Assay (external screen)
A procedure similar to that described above for the [^3 H]TCP radioreceptor assay (internal screen) was utilized except that the whole rat forebrain membranes were incubated at 25° C. for 60 minutes rather than at room temperature for 25 minutes, before termination of the reaction. The results are reported as a percent (%) inhibition of binding at 10 μM.

Molecule | Ki [1] | other results
Brc1ccc2c(c1)C1C3CCCC3C2N2CCCCC12 (centres unmarked) [Example 4, 9-bromo-6,11 [1',2']cyclopentyl-1,2,3,4,5,6,11,11a-octahydrobenzo[b]quinolizine hydrobromide] | 43.7 nM | –
c1ccc2c(c1)C1C3CCCCC3C2N2CCCCC12 (centres unmarked) [Example 1a, 6,11 [1',2']cyclohexyl-1,2,3,4,5,6,11:11a-octahydrobenzo[b]quinolizine] | 134 nM | –
CC12c3ccccc3C(C3CCCC31)N1CCCCC12 (centres unmarked) [Example 2, 11-methyl-6,11 [1',2']cyclopentyl-1,2,3,4,5,6,11,11a-octahydrobenzo[b]quinolizine] | 40 nM | –
Oc1cccc2c1C1C3CCCC3C2N2CCCCC12 (centres unmarked) [Example 12b, 10-hydroxy-6,11 [1',2']cyclopentyl-1,2,3,4,5,6,11,11a-octhydrobenzo[b]quinolizine hydrobromide] | 2.29 nM | –
C[N+]12CCCCC1C1c3ccccc3C2C2CCCC21 (centres unmarked) [Example 15, 5-methyl-6,11 [1',2']cyclopentyl-1,2,3,4,5,6,11,11a-octahydrobenzo[b]quinolizinium bromide] | 22.3 nM | –
Fc1ccc2c(c1)C1C3CCCC3C2N2CCCCC12 (centres unmarked) [Example 5, 9-fluoro-6,11[1',2']cyclopentyl-1,2,3,4,5,6,11,11a-octahydrobenzo[b]quinolizine fumarate] | 20 nM | –
Nc1ccc2c(c1)C1C3CCCC3C2N2CCCCC12 (centres unmarked) [Example 6, 9-amino-6,11 [1',2']cyclopentyl-1,2,3,4,5,6,11,11a-octahydrobenzo[b]quinolizine] | 11.8 nM | –
Oc1ccc2c(c1)C1C3CCCC3C2N2CCCCC12 (centres unmarked) [Example 10b, 9-hydroxy-6:11 [1',2']cyclopentyl-1,2,3,4,5,6,11,11a-octahydrobenzo [b]quinolizine hydrobromide] | 2.31 nM | IC50 ([2]; Mus musculus, Cortical neurone): 42 nM
[O-][N+]12CCCCC1C1c3ccccc3C2C2CCCC21 (centres unmarked) [Example 14, 6,11 [1',2']cyclopentyl-1,2,3,4,5,6,11,11a-octahydrobenzo[b]quinolizine-5-oxide] | 33.1 nM | –
6,11 [2',3']tetrahydrofuranyl-1,2,3,4,5,6,11,11a-octahydrobenzo [b]quinolizine hydrobromide [Example 8] | 606 nM | IC50 [2]: 12200 nM
6,11 [2',3']tetrahydropyranyl-1,2,3,4,5,6,11,11a-octahydrobenzo[b]quinolizine hydrobromide [Example 7] | 1420 nM | –
c1ccc2c(c1)C1C3CCCC3C2N2CCCCC12 (centres unmarked) [Example 9a, 6,11 [1',2']cyclopentyl-1,2,3,4,5,6,11,11a-octahydrobenzo[b]quinolizine hydrobromide] | 15.4 nM | [^3 H]TCP (external screen) Percent inhibition [3]: 100%; IC50 ([2]; Mus musculus, Cortical neurone): 100 nM
c1ccc2c(c1)C1c3ccccc3C2N2CCCCC12 (centres unmarked) [Example 1b, 6,11 [1',2']benzeno-1,2,3,4,5,6,11,11a-octahydrobenzo[b]quinolizine] | 333 nM | –
CC12c3ccccc3C(C3CCCC31)C1CCCCN12 (centres unmarked) [Example 13, 6-methyl-6,11 [1',2']cyclopentyl-1,2,3,4,5,6,11,11a-octahydrobenzo [b]quinolizine] | 8.87 nM | –
Oc1ccc2c(c1)C1C3CCCC3C2C2CCCCN21 (centres unmarked) [Example 3b, 8-hydroxy-6,11 [1',2']cyclopentyl-1,2,3,4,5,6,11,11a-octahydrobenzo[b]quinolizine hydrobromide] | 27.9 nM | –
c1ccc2c(c1)C1C3CCCCC3C2N2CCCCC12 (centres unmarked) [Example 11, 6,11 [1',2']cyclohexyl-1,2,3,4,5,6,11,11a-octahydrobenzo[b]quinolizine] | 219 nM | –
